Assay results reported in patent publication US20090012152A1, “Use of Tetramic Acid Derivatives for Controlling Insects from the Genus of the Plane Lice (Sternorrhyncha)” (Bayer CropScience Aktiengesellschaft, priority 2005, published 2009).

Key:
Type in all cases: in vivo
Psylla piri = assay: Example 6: pear trees treated against Psylla piri; conditions: larvae on shoots, % a.i.: amitraz 0.05, I-9, I-2, I-1 0.096
Protocol: In three replications, in each case 4 about 4-year-old pear trees of the cultivar “Williams Christ” are treated against Psylla piri. Two applications are carried out at an interval of 11 days using a motor-operated barrow-mounted sprayer. Here, the active compounds Example (I-9) (240 SC), Example (I-2) (240 SC) and Example (I-1) (240 SC) are tested against the commercial standard Amitraz (200 EC) at the stated amounts. The application rate is 2000 l of water/ha.
Evaluation is carried out 3, 10 and 20 days after the last treatment by rating the kill of the larvae in percent on the shoots.

Pulvinaria aethiopicus = assay: Example 10: mandarin trees treated against Pulvinaria aethiopicus; conditions: 45 days after last of two treatments, on fruits, % a.i.: mineral oil 0.251 + pyriproxifen 0.003, I-9 0.0096, I-2 0.0144
Protocol: In three replications, about 6-year-old mandarin trees of the cultivar “Naartje” are treated against Pulvinaria aethiopicus. Two applications are carried out at an interval of 32 days as irradication treatment using a knapsack operated with pressurized air. Here, the active compounds Example (I-9) (240 SC) and Example (I-2) (240 SC) are tested against a commercial tank mix of a mineral oil (835 EC) which is commercially available in South Africa and customarily used in this country and pyriproxifen (100 EC) at the stated amounts. The application rate is 8.3 l of water/tree.
Evaluation is carried out 45 days after the last treatment by rating the kill in percent on the fruits.

Paratrioza cockerelli = assay: Example 9: tomatoes treated against Paratrioza cockerelli; conditions: nymphs on leaves, g a.i./ha: Levarage 81, I-4 48
Protocol: In three replications, plots of a size of 10 m^2 with tomatoes are treated against Paratrioza cockerelli. Application is carried out using a knapsack sprayer operated with pressurized air. Here, the active compound Example (I-4) (240 SC) in a tank mix with 0.2% a.i. of rapeseed oil methyl ester (500 EW) and the commercial standard Leverage (324 SE) are tested at the stated application rates. There are two applications at an interval of 7 days. The application rate is 345 l of water/ha.
Evaluation is carried out 7, 14 and 21 days after the first treatment by rating the kill of the animals (nymphs) on the leaves.

Saissetia oleae = assay: Example 14: orange trees (Navelina) treated against Saissetia oleae; conditions: 120 d after treatment, kill on branches, % a.i.: Dursban 0.096, I-4 0.012, I-9 0.0054, pyriproxyfen 0.005
Protocol: In three replications, orange trees of the cultivar “Navelina” are treated against Saissetia oleae. Here, the active compounds Example (I-4) (240 SC) and Example (I-9) (240 SC) in a tank mix with 0.1% of rapeseed oil methyl ester (500 EW) at the stated application rate are tested against the commercial standards Dursban (480 EC) and pyriproxyfen (100 EC) at the stated application rate. The application is carried out using a motor-operated knapsack sprayer. The application rate is 3200 l of water/ha.
Evaluation is carried out 120 days after the treatment by rating the kill of the animals on the branches.

Pseudococcus citri = assay: Example 26: citrus trees treated against Pseudococcus citri; conditions: 62 days after treatment, larvae on fruits, g a.i./ha/m crown height: Dursban 960, I-4 72
Protocol: In three replications, in plots of a size of about 20 m^2, citrus trees of the cultivar “Oro Nules” are treated against Pseudococcus citri. The application is carried out using a high-pressure sprayer. Here, the active compound Example (I-4) (240 SC), in a tank mix with 0.1% a.i. of rapeseed oil methyl ester (500 EW), is tested against the commercial standard Dursban (480 EC), at the stated application rates. The application rate is 2500 l of water/ha.
Evaluation is carried out 62 days after the treatment by rating the kill of the larvae on the fruits.

Dysmicoccus brevipes = assay: Example 30: pineapple plants treated against Dysmicoccus brevipes; conditions: nymphs on pineapple plants, g a.i./ha: Confidor OD 140, I-4 75
Protocol: In five replications, pineapple plants of the cultivar “MD2” of a height of about 35 cm are treated against Dysmicoccus brevipes. The application is carried out using a motor-operated knapsack sprayer. Here, the active compound Example (I-4) (150 OD) is tested against the commercial standard Confidor OD (240 OD), at the stated application rates. The application rate is 4000 l of water/ha. Both active compounds are sprayed as a tank mix with 500 g of a.i./ha of adjuvant NP-7 and 4 l of a.i./ha of mineral oil.
Evaluation is carried out 9, 23 and 37 days after the treatment by rating the kill of the nymphs on the plants.

Myzus persicae [1] = assay: Example 46: head lettuce treated against Myzus persicae; conditions: nymphs on plants, g a.i./ha: endosulfan 1120, I-4 48
Protocol: In four replications, plots of a size of about 33 m^2 with head lettuce of the cultivar “PIC 714” are treated against Aulacorthum solani, Macrosiphum euphorbiae and Myzus persicae. The application is carried out using a tractor sprayer. Here, the active compound Example (I-4) (240 SC), in a tank mix with 0.2% a.i. of rapeseed oil methyl ester (500 EW), is tested against the commercial standard endosulfan (360 EC), at the stated application rates. The application rate is 187 l of water/ha. Two treatments are carried out, at an interval of 22 days.
Evaluation is carried out 8, 22, 30 and 40 days after the first treatment by rating the kill of the nymphs on the plants.

Myzus persicae [2] = assay: Example 50: tomatoes treated against Myzus persicae; conditions: nymphs on leaves, g a.i./ha: acetamiprid 50, I-9 36, I-4 48
Protocol: In two replications, plots of a size of about 43 m^2 with tomatoes of the cultivar “Yaqui” are treated against Myzus persicae. The application is carried out using a motor-operated knapsack sprayer. Here, the active compounds Example (I-9) (240 SC) and Example (I-4) (240 SC), in a tank mix with 0.1% a.i. of rapeseed oil methyl ester (500 EW), and the standard acetamiprid (20 WP) are applied at the stated application rates. The application rate is 208 l of water/ha.
Evaluation is carried out 3 and 10 days after the treatment by rating the kill of the nymphs on the leaves.

Compound	Kill (%) 3 d (Psylla piri; 3 d after last of two treatments)	Kill (%) 10 d (Psylla piri; 10 d after last of two treatments)	Kill (%) 20 d (Psylla piri; 20 d after last of two treatments)	Kill (%) (Pulvinaria aethiopicus)	Kill (%) 7 d (Paratrioza cockerelli; 7 d after first of two treatments)	Kill (%) 14 d (Paratrioza cockerelli; 14 d after first of two treatments)	Kill (%) 21 d (Paratrioza cockerelli; 21 d after first of two treatments)	Effect (%) 120 d (Saissetia oleae)	Kill (%) 62 days (Pseudococcus citri)	Kill (%) 9 days (Dysmicoccus brevipes; 9 days after treatment)	Kill (%) 23 days (Dysmicoccus brevipes; 23 days after treatment)	Kill (%) 37 days (Dysmicoccus brevipes; 37 days after treatment)	Kill (%) 8 d (Myzus persicae [1]; 8 d after first of two treatments)	Kill (%) 22 d (Myzus persicae [1]; 22 d after first of two treatments)	Kill (%) 30 d (Myzus persicae [1]; 30 d after first of two treatments)	Kill (%) 3 d (Myzus persicae [2]; 3 d after treatment)	Kill (%) 10 d (Myzus persicae [2]; 10 d after treatment)
CCOC(=O)OC1=C(c2cc(C)ccc2Br)C(=O)NC12CCC(OC)CC2 (centres unmarked) [Example (I-2)]	96.7%	99%	97.9%	72%	–	–	–	–	–	–	–	–	–	–	–	–	–
CCOC(=O)OC1=C(c2cc(C)ccc2C)C(=O)NC12CCC(OC)CC2 (centres unmarked) [Example (I-4)]	–	–	–	–	71.3%	90.3%	95.5%	98%	99%	80.9%	84.0%	91.3%	95%	100%	88%	92.6%	95.9%
